Data taken from PubChem BioAssay (NCI).
Values joined by “and” are separate entries in the source; they are usually repeats but may differ in a detail not shown here. Equal values may be shown once.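 Exposure lasted 48 hours, with cells grown in 96-well plates and compounds tested at five concentrations. GI50 marks 50% less growth. TGI: total growth inhibition.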 *1 amine or outer side, *2 acyl side, *3 side chain or, on linkers, in order; H or OH if unused. Where a SMILES comes first, the peptide text is derived from it. [ ]: non-standard residue; d: D form. X56 = CC[C@H](C)[C@H](OC(=O)[C@@H](C)[C@@H](CC)N[*:1])C(=O)[*:2]; X32 = C[C@H](N[*:1])C(=O)C(C)(C)C(=O)[*:2]; NMeY = CN[C@@H](Cc1ccc(O)cc1)C(=O)O; NMeL = CN[C@@H](CC(C)C)C(=O)O; NMeV = CN[C@H](C(=O)O)C(C)C

Key:
Assay in all cases: growth of human tumour cells (NCI), 48 h
CAKI-1 renal = system: CAKI-1 renal
K-562 leukemia = system: K-562 leukemia
MALME-3M melanoma = system: MALME-3M melanoma
HL-60(TB) leukemia = system: HL-60(TB) leukemia
UACC-62 melanoma = system: UACC-62 melanoma
RXF 393 renal = system: RXF 393 renal
CCRF-CEM leukemia = system: CCRF-CEM leukemia
LOX IMVI melanoma = system: LOX IMVI melanoma
OVCAR-4 ovarian = system: OVCAR-4 ovarian
T-47D breast = system: T-47D breast

Structure (SMILES)	TGI (CAKI-1 renal)	TGI (K-562 leukemia) [µM]	TGI (MALME-3M melanoma) [µM]	TGI (HL-60(TB) leukemia) [µM]	TGI (UACC-62 melanoma)	TGI (RXF 393 renal)	TGI (CCRF-CEM leukemia) [µM]	TGI (LOX IMVI melanoma) [µM]	TGI (OVCAR-4 ovarian) [µM]	TGI (T-47D breast) [µM]	GI50 (CAKI-1 renal) [µM]	GI50 (K-562 leukemia) [µM]	GI50 (MALME-3M melanoma) [µM]	GI50 (HL-60(TB) leukemia) [µM]	GI50 (T-47D breast) [µM]	GI50 (UACC-62 melanoma) [µM]	GI50 (CCRF-CEM leukemia) [µM]	GI50 (LOX IMVI melanoma) [µM]	GI50 (OVCAR-4 ovarian) [µM]	GI50 (RXF 393 renal) [µM]
NNC(=O)/C(NC(=O)c1ccccc1)=C(\N)c1ccc(Cl)cc1	> 100 µM	> 100	> 100	> 100	> 100 µM	> 100 µM	> 100	> 100	> 100	–	–	–	–	–	–	–	–	–	–	–
O=c1c2ccccc2nc(-c2cccc(Cl)c2)n1NCC1(O)OCC(O)C(O)C1O (configuration not stated)	> 100 µM	> 100	> 100	> 100	> 100 µM	> 100 µM	> 100	> 100	> 100	–	–	–	–	–	–	–	–	–	–	–
NC(CC1=CCC=CC1)C(=O)O (configuration not stated)	> 100 µM	> 100	–	–	> 100 µM	> 100 µM	> 100	> 100	> 100	> 100	–	–	–	–	–	–	–	–	–	–
COc1cc2c(c(OC)c1OC)-c1ccc(OC)c(=O)cc1[C@@H](N(C)C=O)CC2	> 100 µM	> 100	> 100	0.0329	> 100 µM	–	> 100	> 100	> 100	–	–	–	–	–	–	–	–	–	–	–
O=c1c2cccnc2ncn1CCN1CCCC1	> 100 µM	> 100	> 100	–	> 100 µM	> 100 µM	> 100	> 100	> 100	–	–	–	–	–	–	–	–	–	–	–
c1ccc(COC2(OCc3ccccc3)CC3OC2C2NN=NC32)cc1 (configuration not stated)	> 100 µM	38.6	52.6	33.7	46.6 µM	> 100 µM	33.1	36.5	36.4	–	–	–	–	–	–	–	–	–	–	–
O=[N+]([O-])c1ccc2nc3ccccc3cc2c1	0.0944 µM	8.79	13.3	–	6.27 µM	> 100 µM	–	6.91	10.4	15.4	–	–	–	–	–	–	–	–	–	–
Cc1ccc(Oc2ccc([N+](=O)[O-])cc2[N+](=O)[O-])c(C)c1	> 100 µM	> 100	> 100	65.2	> 100 µM	89.7 µM	> 100	–	> 100	–	–	–	–	–	–	–	–	–	–	–
Cc1cccc(C)c1NC(=O)CCc1n[nH]c(=S)o1	> 100 µM	> 100	> 100	> 100	> 100 µM	–	> 100	–	> 100	–	–	–	–	–	–	–	–	–	–	–
C=CCn1cc(C(=O)NC(=O)NCCCCCOC(=O)CCCCCCCCCCC(=O)OCCCCCNC(=O)NC(=O)c2cn(CC=C)c(=O)n(C)c2=O)c(=O)n(C)c1=O	> 100 µM	> 100	> 100	> 100	> 100 µM	> 100 µM	> 100	> 100	–	–	–	–	–	–	–	–	–	–	–	–
S=c1nc(N2CCCCC2)ss1	> 100 µM	52.1	35.6	44.3	35.4 µM	33.4 µM	46.4	–	> 100	–	–	–	–	–	–	–	–	–	–	–
COC(=O)C1C(OCc2ccccc2)C2CCC1(OC)C=C2C (configuration not stated)	> 100 µM	> 100	> 100	29.8	> 100 µM	> 100 µM	65	> 100	> 100	–	–	–	–	–	–	–	–	–	–	–
CC1C(=O)O[C@H]2C1CC[C@@]1(C)[C@H](O)CC[C@@]13C[C@]2(O)OO3 (some centres not stated)	> 100 µM	> 100	> 100	> 100	> 100 µM	–	> 100	> 100	> 100	–	–	–	–	–	–	–	–	–	–	–
COc1cc(/C=C(\OC(C)=O)c2ccc3c(c2)OCO3)cc(OC)c1OC	> 100 µM	> 100	59.7	> 100	34.2 µM	> 100 µM	> 100	31.3	51.8	–	–	–	–	–	–	–	–	–	–	–
CC(=O)OC1Oc2ccccc2-c2oc(=O)c(-c3cc4ccccc4oc3=O)cc21 (configuration not stated)	66.1 µM	> 100	36.5	> 100	35.1 µM	–	54.2	29.6	50.9	51.8	26.9	27.6	13.9	39	21.3	17.4	23.2	14.9	23.1	–
CC[C@H](C)[C@@H]1OC(=O)[C@@H](C)[C@@H](CC)NC(=O)[C@H](C)NC(=O)C(C)(C)C(=O)[C@H](C)NC(=O)[C@H](Cc2ccc(OC)cc2)N(C)C(=O)[C@H](C(C)C)N(C)C(=O)CNC(=O)[C@H](CC(C)C)N(C)C(=O)CNC1=O (cyclo(A[X56]G[NMeL]G[NMeV][NMeY](Me)[X32]))	0.122 µM and 0.0888 µM	0.634	–	–	5.28 µM and 5.31 µM	0.0483 µM and 0.104 µM	–	–	–	–	0.0259	< 0.0322	0.0304	–	–	0.111	< 0.0152	0.0392	–	0.0274
CC/C=C/c1cc2cc[nH]c2c2c1C(C)C[C@@H]2C (some centres not stated)	> 100 µM	65.9	> 100	58.3	41.8 µM	41.3 µM	61.9	31	–	–	–	–	–	–	–	–	–	–	–	–
O=C(c1ccc(Cl)cc1)c1ccc(OCCSCCCCCCCCCCSCCOc2ccc(C(=O)c3ccc(Cl)cc3)cc2)cc1	> 100 µM	> 100	> 100	> 100	> 100 µM	> 100 µM	> 100	> 100	–	–	–	–	–	–	–	–	–	–	–	–
C=C1C(=O)O[C@H]2[C@H]1CC/C(COC(=O)c1ccccc1)=C\CC[C@@]1(C)O[C@@H]21	–	13	3.86	3.95	3.13 µM	2.58 µM	1.3	2.74	9.87	–	–	0.451	1.82	0.981	–	1.44	0.281	1.32	2.64	1.14
Cn1cnc([N+](=O)[O-])c1Sc1nnnn1-c1ccccc1	30.1 µM	19.9	21.3	–	27.4 µM	–	7.12	19.1	22.2	–	–	–	–	–	–	–	–	–	–	–
COc1cc2c(cc1OCCCCOc1ccc(-c3nc4ccccc4s3)cc1)N=C[C@@H]1CCCN1C2=O	10.8 µM	4.91	–	16.5	2.69 µM	0.443 µM	2.38	1.96	9.02	1.45	0.769	0.301	–	0.384	0.339	1.14	0.456	0.73	1.24	0.19
